Test results published in PMC7824769, “Identification of Small Molecules Blocking the Pseudomonas aeruginosa Type III Secretion System Protein PcrV” (Biomolecules, 2021).
Like-named read-outs stand apart in the source and are kept apart here.

How the values were obtained:
[1] = system: J774 cells infected with P. aeruginosa strain PAK; experiment: cells; format: cell-based, Pseudomonas aeruginosa; details: for Anti-virulence efficacy in the infection assay (in words): 25-200 µM; for viability at 25 µM / viability at 50 µM / viability at 100 µM / viability at 200 µM: Pseudomonas aeruginosa; for viability at 25 µM: J774, compound 25 µM; for viability at 50 µM: J774, compound 50 µM; for viability at 100 µM: J774, compound 100 µM; for viability at 200 µM: J774, compound 200 µM
Method: The cell viability assay was performed essentially as described before. J774 cells were seeded in 96-well micro-titer plates (Nunc), 100 µL/well, to a final number of 50,000 cells/well in Dulbecco’s modified Eagle’s medium (DMEM) with glutamax (Merck) supplemented with 10% fetal calf serum (FCS) and 3 µg/mL gentamicin and incubated for 16-18 h. Overnight cultures of the P. aeruginosa strains PAK and PAKpcrV [10] were grown in Luria Broth (LB) on a rotary shaker at 220 rpm at 37 °C. Prior to infection, the bacteria were diluted 1:10 in DMEM + glutamax and incubated for 1 h at 37 °C (shaking). The J774 cells were washed once with PBS, then 30 µL of DMEM with glutamax and 10% FCS supplemented with the potential binders at concentrations of 50, 100, 200, and 400 µM were added to the wells in triplicates. The infection was initiated by adding 30 µL of the diluted bacterial solutions (where the OD600 had been diluted to 0.0008) to each well to initiate infection. This infection results in a final bacterial concentration of OD600 = 0.0004 and a multiplicities of infection (MOI) of approximately 8, with final concentrations of the compounds at 25, 50, 100, and 200 µM in 60 µL of DMEM + glutamax and 5% FCS. In the primary screening, the compounds were run at one concentration (100 µM) in duplicates. As an infection control, the wild-type strain PAK with 1% DMSO was added, and as a positive control, PAKpcrV with 1% DMSO was added into four wells each. After 3 h and 30 min, 10 µL of UptiBlue Viable Cell Counting Kit (Interchime, France) was added to all wells. The infection was followed under the light microscope and the fluorescence (excitation 535 nm and emission 595 nm) was measured at 4, 5, and 6 h in a microplate reader (Synergy™ H4, Biotek). The results were calculated as percentage of living cells compared to uninfected control, where the uninfected control was set to 100% living cells and the infected control was set to 0% living cells. As a control, compounds were added to uninfected cells in a parallel experiment and viability was calculated as above to screen for cell toxicity. A compound was considered toxic if the viability was <80% of the uninfected control after 6 h of incubation and if a visual change of cell morphology was observed by microscopy. Z’ was calculated for each plate to ensure good quality throughout the screening. Only results from plates with a Z’ > 0.4 were counted. Standard deviation was calculated with Gaussian approximation when appropriate and shown as error bars in Figure 3C and Figure 4A.
The T3SS is important for P. aeruginosa infection of eukaryotic cells, and a T3SS activator mutant or a mutant lacking the T3SS tip protein PcrV are not able to infect eukaryotic cells. The macrophage cell line, J774, was infected with the wild-type P. aeruginosa strain PAK, and the potential PcrV binders were added to the wells at a final concentration of 100 µM to screen for inhibition of infection. The T3SS-mediated cytotoxic effect on the eukaryotic cells was measured by using a viability staining method (Uptiblue, Interchim), and the results were measured after 4, 5, and 6 h of infection. The pcrV-mutant (PAKpcrV), which is not able to infect macrophages due to deletion of the PcrV protein, was used as a control.

P. aeruginosa strain PAK = experiment: Bacterial toxicity (growth) assay, OD600; format: cell-based, Pseudomonas aeruginosa; details: 200, 100, 50 and 25 µM; OD600 for 8 h
Method: Overnight culture of the P. aeruginosa strain PAK was diluted in LB (Luria Broth) to an OD600 of 0.2. The bacteria were added into microtiter plates, and 25, 50, 100, and 200 µM of the potential binders were added in triplicates to the bacteria with a final concentration of 1% DMSO. […] Wells with 1% DMSO without substance were used as positive controls.

PcrV = PcrV (Pseudomonas aeruginosa, UniProt G3XD49); experiment: 1H NMR relaxation-edited binding experiment; details: compound 100 µM, PcrV 10 µM
Sequence of PcrV (G3XD49 entry or part of it): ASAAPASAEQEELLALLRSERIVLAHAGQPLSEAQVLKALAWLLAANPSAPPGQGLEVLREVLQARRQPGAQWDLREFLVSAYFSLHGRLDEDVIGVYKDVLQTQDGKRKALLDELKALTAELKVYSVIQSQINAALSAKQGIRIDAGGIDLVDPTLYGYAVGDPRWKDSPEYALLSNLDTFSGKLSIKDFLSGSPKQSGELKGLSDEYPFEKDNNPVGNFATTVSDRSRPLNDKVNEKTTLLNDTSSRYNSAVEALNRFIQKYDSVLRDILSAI
Method: A solution containing 100 µM of the small molecule was prepared from 20 mM stock solution of the tested compound in DMSO and diluted in PBS (pH 7.4) containing trimethylsilyl propanoic acid (TMSP) as an internal standard. This solution was then split into halves and used for preparation of the test and the reference samples as follows: the test sample was prepared by adding 24 µL of 0.211 mM PcrV protein stock solution, resulting in a final protein concentration of 10 µM, whereas the reference sample was prepared by adding the corresponding volume of PBS buffer only before being transferred to 5-mm NMR tubes. The relaxation-edited experiments shown in Figure 3D were recorded on Bruker 600 MHz, and data were acquired at 298 K. Data from 256 scans were accumulated, and a Carr-Purcell-Meiboom-Gill (cpmg) spin-lock of 200 ms was used. Excitation sculpture was applied for water suppression.
To confirm the binding data obtained from the SPR, a secondary qualitative label-free binding experiment based on ^1H-NMR was performed.

[2] = uninfected control = 100%, infected control = 0%, read-out: Viability Assay (% of Uninfected Control) 25 µM
[3] = uninfected control = 100%, infected control = 0%, read-out: Viability Assay (% of Uninfected Control) 50 µM
[4] = uninfected control = 100%, infected control = 0%, read-out: Viability Assay (% of Uninfected Control) 100 µM
[5] = uninfected control = 100%, infected control = 0%

| Structure (SMILES) | Anti-virulence efficacy in the infection assay (in words) [1] | viability at 25 µM [1, 2] [%] | viability at 50 µM [1, 3] [%] | viability at 100 µM [1, 4] [%] | viability at 200 µM [1, 5] [%] | Effect on bacterial growth (P. aeruginosa strain PAK) | viability at 25 µM ([1]; one representative experiment, read-out: Macrophage Viability, wt+25 µM (Figure 3C)) [%] | viability at 50 µM ([1]; one representative experiment, read-out: Macrophage Viability, wt+50 µM (Figure 3C)) [%] | viability at 100 µM ([1]; one representative experiment, read-out: Macrophage Viability, wt+100 µM (Figure 3C)) [%] | 1H NMR binding to PcrV (qualitative) (PcrV) |
| --- | --- | --- | --- | --- | --- | --- | --- | --- | --- | --- |
| Cc1c(Br)ccc(OC[C@@H]2C[C@@H]2C(=O)O)c1C (relative stereo) [Compound 33] | as efficacious as or better than H1 | 24 | 24 | 38 | ≤ 38 | without affecting bacterial growth | – | – | – | – |
| Cc1c(Br)ccc(OC[C@@H]2C[C@H]2C(=O)O)c1C (relative stereo) [Compound 32] | as efficacious as or better than H1 | 22 | 21 | 33 | ≤ 38 | without affecting bacterial growth | – | – | – | – |
| Cc1c(Br)ccc(OCCCC(=O)O)c1C [Compound H1] | – | 12 | 20 | 27 | 28 | – | -4 | 19 | 42 | signal reduction |
